Results taken from US9097673B2, “Processes and kits for determining multi-drug resistance of cells” (ENZO LIFE SCIENCES, INC., priority 2010, dated 2015).
Values joined by “and” are separate entries in the source; they are usually repeats but may differ in a detail not shown here. Equal values may be shown once. Read-outs that look alike come from different tables or passages of the source.

Key:
CHO K1 cell line = experiment: Dye uptake flow cytometry MDR assay; format: cell-based, hamster;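 also: flow cytometry of dye-loaded cells, Kolmogorov-Smirnov D value (0 to 1.0) comparing fluorescence with versus without inhibitor, made negative when the uninhibited control was brighter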
A549 cell line = experiment: Dye uptake flow cytometry MDR assay; format: cell-based, human
HeLa cell line = experiment: Dye uptake flow cytometry MDR assay; format: cell-based, human
[1] = system: U-2 OS cells expressing GFP; experiment: Multiplexed MDR detection by flow cytometry (dye uptake, with PI); format: cell-based, human; conditions: U-2 OS GFP; for R4 + PI compens, MAF / R4 + PI, MAF: Rhod-4 AM + PI; for R4 + PI compens, MAF: compensated; for R4 + PI, MAF: uncompensated; for R4, MAF: Rhod-4 AM probe alone;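 as to F8 + PI, MAF: MAF computed as 100 × (MFI with inhibitor − MFI without) / MFI with inhibitor, after 5 min inhibitor pre-incubation then 30 min dye loading at 37 °C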;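 as to F8, MAF: MAF computed as 100 × (MFI with inhibitor − MFI without) / MFI with inhibitor, after 5 min inhibitor pre-incubation then 30 min dye loading at 37 °C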
U-2 OS cells = experiment: as above; format: cell-based, human; conditions: for F8 + PI, MAF: Fluo-8 AM + PI; for F8, MAF: Fluo-8 AM probe alone; for R4 + PI compens, MAF / R4 + PI, MAF: Rhod-4 AM + PI; for R4 + PI compens, MAF: compensated; for R4 + PI, MAF: uncompensated; for R4, MAF: Rhod-4 AM probe alone
[2] = CHO K1, dye uptake, average of three independent experiments (Table 10)
[3] = A549, dye uptake, average of three independent experiments (Table 10)
[4] = HeLa, dye uptake, average of three representative experiments (Table 6)
[5] = CHO K1, dual probes Fluo-8 AM (FL1) + Pheophorbide A (FL3)
[6] = CHO K1, dual probes Rhod-4 AM (FL2) + Pheophorbide A (FL3)
[7] = CHO K1, dye uptake, average of three representative experiments (Table 6)
[8] = CHO K1, triple probes CMFDA (FL1) + Rhod-4 AM (FL2) + Pheophorbide A (FL3)
[9] = CHO K1, triple probes DiOC2(3) (FL1) + Rhod-4 AM (FL2) + Pheophorbide A (FL3)
[10] = A549, dye uptake, average of three representative experiments (Table 6)
[11] = CHO K1, dual probes Rhod-4 AM (FL2) + DiOC2(3) (FL1)
[12] = CHO K1, Fluo-8 AM + propidium iodide, uncompensated data
[13] = CHO K1, Fluo-8 AM probe alone, uncompensated data
[14] = CHO K1, Rhod-4 AM + propidium iodide, compensated data
[15] = CHO K1, Rhod-4 AM + propidium iodide, uncompensated data
[16] = CHO K1, Rhod-4 AM probe alone, uncompensated data
[17] = CHO K1, dual probes Rhod-4 AM (FL2) + CMFDA (FL1)

O=C1c2c(O)ccc(O)c2C(=O)c2c(NCCNCCO)ccc(NCCNCCO)c21 [Mitoxantrone, mitoxantrone]
D-value, Cyclosporine A (CHO K1 cell line; [2]): 0.34
D-value, FTC (CHO K1 cell line; [2]): 0.21
D-value, MK-571 (CHO K1 cell line; [2]): 0.18
D-value, Novobiocin (CHO K1 cell line; [2]): 0.22
D-value, Verapamil (CHO K1 cell line; [2]): 0.42
D-value, Cyclosporine A (A549 cell line; [3]): 0.27
D-value, FTC (A549 cell line; [3]): 0.28
D-value, MK-571 (A549 cell line; [3]): 0.37
D-value, Novobiocin (A549 cell line; [3]): 0.28
D-value, Verapamil (A549 cell line; [3]): 0.12

C=Cc1c(C)c2cc3nc(c4c5[nH]c(cc6nc(cc1[nH]2)C(C)=C6CC)c(C)c5C(=O)[C@@H]4C(=O)OC)[C@@H](CCC(=O)O)[C@@H]3C [Pheophorbide A, pheophorbide A]
D-value, Fumitremorgan C (HeLa cell line; [4]): 0
D-value, Probenecid (HeLa cell line; [4]): 0
D-value, Verapamil (HeLa cell line; [4]): 0
D-values Post Inhibitor Treatment (compared to uninhibited cells), CsA (CHO K1 cell line; [5]): 0.25
D-values Post Inhibitor Treatment (compared to uninhibited cells), FTC (CHO K1 cell line; [5]): 0.33
D-values Post Inhibitor Treatment (compared to uninhibited cells), MK-571 (CHO K1 cell line; [5]): 0.15
D-values Post Inhibitor Treatment (compared to uninhibited cells), Verapamil (CHO K1 cell line; [5]): 0.14
D-values Post Inhibitor Treatment (compared to uninhibited cells), CsA (CHO K1 cell line; [6]): 0.25
D-values Post Inhibitor Treatment (compared to uninhibited cells), FTC (CHO K1 cell line; [6]): 0.34
D-values Post Inhibitor Treatment (compared to uninhibited cells), MK-571 (CHO K1 cell line; [6]): 0.14
D-values Post Inhibitor Treatment (compared to uninhibited cells), Verapamil (CHO K1 cell line; [6]): 0.11
D-value, Fumitremorgan C (CHO K1 cell line; [7]): 0.25
D-value, Probenecid (CHO K1 cell line; [7]): 0.03
D-value, Verapamil (CHO K1 cell line; [7]): 0.02
D-values Post Inhibitor Treatment (compared to uninhibited cells), CsA (CHO K1 cell line; [8]): 0.20
D-values Post Inhibitor Treatment (compared to uninhibited cells), FTC (CHO K1 cell line; [8]): 0.27
D-values Post Inhibitor Treatment (compared to uninhibited cells), MK-571 (CHO K1 cell line; [8]): 0.09
D-values Post Inhibitor Treatment (compared to uninhibited cells), Verapamil (CHO K1 cell line; [8]): 0.18
D-values Post Inhibitor Treatment (compared to uninhibited cells), CsA (CHO K1 cell line; [9]): 0.4
D-values Post Inhibitor Treatment (compared to uninhibited cells), FTC (CHO K1 cell line; [9]): 0.41
D-values Post Inhibitor Treatment (compared to uninhibited cells), MK-571 (CHO K1 cell line; [9]): 0.13
D-values Post Inhibitor Treatment (compared to uninhibited cells), Verapamil (CHO K1 cell line; [9]): 0.17
D-value, Fumitremorgan C (A549 cell line; [10]): 0.35
D-value, Probenecid (A549 cell line; [10]): 0.16
D-value, Verapamil (A549 cell line; [10]): 0.16

CCN1C(=CC=Cc2oc3ccccc3[n+]2CC)Oc2ccccc21.[I-] [DiOC2(3), 3,3′-diethyloxacarbocyanine iodide]
D-value, Fumitremorgan C (HeLa cell line): 0.07
D-value, Probenecid (HeLa cell line; [4]): 0.06
D-value, Verapamil (HeLa cell line; [4]): 0
D-value, Fumitremorgan C (CHO K1 cell line): 0
D-values Post Inhibitor Treatment (compared to uninhibited cells), CsA (CHO K1 cell line; [11]): 0.94
D-values Post Inhibitor Treatment (compared to uninhibited cells), FTC (CHO K1 cell line; [11]): 0.16
D-values Post Inhibitor Treatment (compared to uninhibited cells), MK-571 (CHO K1 cell line; [11]): 0.13
D-values Post Inhibitor Treatment (compared to uninhibited cells), Verapamil (CHO K1 cell line; [11]): 0.96
D-value, Probenecid (CHO K1 cell line; [7]): 0.01
D-value, Verapamil (CHO K1 cell line; [7]): 0.96
D-values Post Inhibitor Treatment (compared to uninhibited cells), CsA (CHO K1 cell line; [9]): 0.98
D-values Post Inhibitor Treatment (compared to uninhibited cells), FTC (CHO K1 cell line; [9]): 0.11
D-values Post Inhibitor Treatment (compared to uninhibited cells), MK-571 (CHO K1 cell line; [9]): 0.13
D-values Post Inhibitor Treatment (compared to uninhibited cells), Verapamil (CHO K1 cell line; [9]): 0.98
D-value, Fumitremorgan C (A549 cell line): 0.03
D-value, Probenecid (A549 cell line; [10]): 0
D-value, Verapamil (A549 cell line; [10]): 0.07

CCCN(CCC)S(=O)(=O)c1ccc(C(=O)O)cc1 [Probenecid, probenecid]
R4 + PI compens, MAF [1]: 38.5
R4 + PI, MAF [1]: 47.7
R4, MAF [1]: 34.0
F8 + PI, MAF (U-2 OS cells): 23.1
F8, MAF (U-2 OS cells): 57.5
R4 + PI compens, MAF (U-2 OS cells): 42.4
R4 + PI, MAF (U-2 OS cells): 24.0
R4, MAF (U-2 OS cells): 41.2

CN(C)C(=O)CCSC(SCCC(=O)O)c1cccc(/C=C/c2ccc3ccc(Cl)cc3n2)c1 (stereo not shown) [MK-571]
R4 + PI compens, MAF [1]: 43.3
R4 + PI, MAF [1]: 51.9
R4, MAF [1]: 49.6
F8 + PI, MAF (U-2 OS cells): 52.9
F8, MAF (U-2 OS cells): 65.4
R4 + PI compens, MAF (U-2 OS cells): 54.5
R4 + PI, MAF (U-2 OS cells): 49.7
R4, MAF (U-2 OS cells): 62.8
F8 + PI, D-values (CHO K1 cell line; [12]): 0.92
Fluo-8 ™, D (CHO K1 cell line; [13]): 0.89
R4 + PI, D-values (CHO K1 cell line; [14]): 0.94
R4 + PI, D-values (CHO K1 cell line; [15]): 0.95
Rhod4 ™ (D-values) (CHO K1 cell line; [16]): .94

CO[C@@H]1[C@@H](OC(N)=O)[C@@H](O)[C@H](Oc2ccc3c(O)c(NC(=O)c4ccc(O)c(CC=C(C)C)c4)c(=O)oc3c2C)OC1(C)C [Novobiocin, novobiocin]
R4 + PI compens, MAF [1]: 2.8
R4 + PI, MAF [1]: 27.9
R4, MAF [1]: 17.9
F8 + PI, MAF (U-2 OS cells): 12.3
F8, MAF (U-2 OS cells): 17.9
R4 + PI compens, MAF (U-2 OS cells): 15.1
R4 + PI, MAF (U-2 OS cells): 10.7
R4, MAF (U-2 OS cells): 18.7
F8 + PI, D-values (CHO K1 cell line; [12]): 0.61
Fluo-8 ™, D (CHO K1 cell line; [13]): 0.54
R4 + PI, D-values (CHO K1 cell line; [14]): 0.66
R4 + PI, D-values (CHO K1 cell line; [15]): 0.7
Rhod4 ™ (D-values) (CHO K1 cell line; [16]): .64

COc1ccc(CCN(C)CCCC(C#N)(c2ccc(OC)c(OC)c2)C(C)C)cc1OC (stereo not shown) [Verapamil, verapamil]
R4 + PI compens, MAF [1]: 38.0
R4 + PI, MAF [1]: 41.3
R4, MAF [1]: 30.4
F8 + PI, MAF (U-2 OS cells): 33.0
F8, MAF (U-2 OS cells): 63.4
R4 + PI compens, MAF (U-2 OS cells): 54.1
R4 + PI, MAF (U-2 OS cells): 35.8
R4, MAF (U-2 OS cells): 42.5
F8 + PI, D-values (CHO K1 cell line): 0.94
Fluo-8 ™, D (CHO K1 cell line): 0.92
R4 + PI, D-values (CHO K1 cell line): 0.96 and 0.95
Rhod4 ™ (D-values) (CHO K1 cell line): 0.94

CC(=O)Oc1ccc2c(c1)Oc1cc(OC(C)=O)ccc1C21OC(=O)c2cc(CCl)ccc21 [CMFDA, chloromethylfluorescein diacetate]
D-value, Fumitremorgan C (HeLa cell line; [4]): 0.12
D-value, Probenecid (HeLa cell line; [4]): 0.03
D-value, Verapamil (HeLa cell line; [4]): 0
D-values Post Inhibitor Treatment (compared to uninhibited cells), CsA (CHO K1 cell line; [17]): 0.49
D-values Post Inhibitor Treatment (compared to uninhibited cells), FTC (CHO K1 cell line; [17]): 0.06
D-values Post Inhibitor Treatment (compared to uninhibited cells), MK-571 (CHO K1 cell line; [17]): 0.91
D-values Post Inhibitor Treatment (compared to uninhibited cells), Verapamil (CHO K1 cell line; [17]): 0.1
D-value, Fumitremorgan C (CHO K1 cell line; [7]): 0.09
D-value, Probenecid (CHO K1 cell line; [7]): 0.7
D-value, Verapamil (CHO K1 cell line; [7]): 0.19
D-values Post Inhibitor Treatment (compared to uninhibited cells), CsA (CHO K1 cell line; [8]): 0.47
D-values Post Inhibitor Treatment (compared to uninhibited cells), FTC (CHO K1 cell line; [8]): 0.14
D-values Post Inhibitor Treatment (compared to uninhibited cells), MK-571 (CHO K1 cell line; [8]): 0.89
D-values Post Inhibitor Treatment (compared to uninhibited cells), Verapamil (CHO K1 cell line; [8]): 0.10
D-value, Fumitremorgan C (A549 cell line; [10]): 0.21
D-value, Probenecid (A549 cell line; [10]): 0.29
D-value, Verapamil (A549 cell line; [10]): 0.04

COc1ccc2c3c([nH]c2c1)[C@H](C=C(C)C)N1C(=O)[C@@H]2CCCN2C(=O)[C@@H]1C3 [FTC, fumitremorgin C]
R4 + PI compens, MAF [1]: 6.2
R4 + PI, MAF [1]: 25.7
R4, MAF [1]: 15.0
F8 + PI, MAF (U-2 OS cells): −6.3
F8, MAF (U-2 OS cells): 5.0
R4 + PI compens, MAF (U-2 OS cells): 12.6
R4 + PI, MAF (U-2 OS cells): −9.3
R4, MAF (U-2 OS cells): 9.9

COc1cccc2c1C(=O)c1c(O)c3c(c(O)c1C2=O)C[C@@](O)(C(=O)CO)C[C@@H]3O[C@H]1C[C@H](N)[C@H](O)[C@H](C)O1 [Doxorubicin, doxorubicin]
D-value, Cyclosporine A (CHO K1 cell line; [2]): 0.42
D-value, FTC (CHO K1 cell line; [2]): 0.22
D-value, MK-571 (CHO K1 cell line; [2]): 0.35
D-value, Novobiocin (CHO K1 cell line; [2]): 0.32
D-value, Verapamil (CHO K1 cell line; [2]): 0.27
D-value, Cyclosporine A (A549 cell line; [3]): 0.14
D-value, FTC (A549 cell line; [3]): 0.18
D-value, MK-571 (A549 cell line; [3]): 0.24
D-value, Novobiocin (A549 cell line; [3]): 0.28
D-value, Verapamil (A549 cell line; [3]): 0.06
